pEC50: −log10 of the molar value.
Assays:
[1] = target: T1, AGTR1 (Homo sapiens, UniProt P30556); test: DiscoveRx β-arrestin2 recruitment assay (enzyme complementation, Pathunter CHO-K1 AGTR1 β-arrestin cell line); format: cell-based; details: for DiscoveRx β-arrestin2 Ymax (%): maximal response
T1 construct: host or cells: Pathunter CHO-K1 AGTR1 β-arrestin cell line (CHO-K1)
T1 sequence (P30556 1-359): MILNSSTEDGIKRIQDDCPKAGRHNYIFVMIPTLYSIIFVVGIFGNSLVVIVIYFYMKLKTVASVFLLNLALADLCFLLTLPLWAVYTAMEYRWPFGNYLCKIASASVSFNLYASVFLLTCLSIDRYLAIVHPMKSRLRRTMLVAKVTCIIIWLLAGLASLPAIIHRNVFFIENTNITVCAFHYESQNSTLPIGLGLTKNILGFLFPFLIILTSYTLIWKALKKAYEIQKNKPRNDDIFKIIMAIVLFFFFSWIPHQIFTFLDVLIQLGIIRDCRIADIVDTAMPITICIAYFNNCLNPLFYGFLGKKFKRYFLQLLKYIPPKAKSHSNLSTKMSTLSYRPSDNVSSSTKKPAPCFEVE
Summary of the method: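 Chemiluminescent enzyme-complementation read-out of β-arrestin2 recruitment to AGTR1 in engineered CHO-K1 cells after 90 min compound exposure at 37° C. Values are 4-parameter logistic EC50s in agonist mode, IC50s in antagonist mode, with efficacy relative to the maximal All response.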

[2] = target: T1, AGTR1; test: DiscoveRx IP1 accumulation assay (HTRF), agonist mode, Pathunter CHO-K1 AGTR1 β-arrestin cell line; format: cell-based; details: for pEC50: read-out: IP-1 EC50
Summary of the method: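 Agonist mode in CHO-K1 AGTR1 β-arrestin cells plated 14-16 h before; compounds at varying concentrations for 90 min at 37° C, IP1 accumulation read by HTRF (D2-conjugate and anti-IP1 cryptate, 20 min room temperature). EC50 from 4-parameter logistic fit; activity given as percentage of maximal AII effect.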

[3] = target: T2, hAT1R (Homo sapiens, UniProt P30556); test: BRET β-arrestin2 biosensor assay, higher receptor expression (hAT1R 5 ng/well), HEK293 cells; format: cell-based; details: for pEC50: High AT1R Expression
T2 sequence (P30556 1-359): T1 sequence (P30556 1-359)

[4] = target: T2, hAT1R; test: cell-based; details: agonist mode; for pEC50: read-out: BRET P63 EC50
[5] = target: T2, hAT1R; test: cell-based; details: section of the 42nd table ending at r951, example numbering restarts after the DiscoveRx section; read-out: β-arrestin2 EC50
[6] = DiscoveRx β-arrestin2 recruitment

Row | pEC50 [1] | pEC50 [5] | Compound | pEC50 [1, 6] | DiscoveRx β-arrestin2 Ymax (%) [1, 6] [%] | IP-1 Ymax (%) [2] [%] | pEC50 [2] | BRET β-Arrestin2 High AT1R Expression Ymax (%) [3] [%] | pEC50 [3] | BRET P63 Ymax [4] [%] | pEC50 [4]
1 |  |  | CCc1nc2c(C)cc(C)nc2n1Cc1ccc(-c2cc(-c3ccccc3O)ccc2C(=O)O)cc1 [Example 184] | 7.51 | 51.2 | 12.0 | 6.96 | 85.9 | 7.83 |  | 
2 |  |  | CCc1nc2c(C)cc(C)nc2n1Cc1ccc(-c2cc(-c3ccc(C(=O)N(C)C)cc3)ccc2C(=O)O)cc1 [Example 185] | 6.86 | 48.9 | 13.8 | 6.69 | 86.7 | 6.83 | 11.7 | 6.35
3 |  |  | CCc1nc2c(C)cc(C)nc2n1Cc1ncc(-c2cc(-c3cccc(C)c3)ccc2C(=O)O)cn1 [Example 198, 3-(2-((2-ethyl-5,7-dimethyl-3H-imidazo[4,5-b]pyridin-3-yl)methyl)pyrimidin-5-yl)-3′-methylbiphenyl-4-carboxylic acid] | 6.91 | 33.0 | 14.6 | 6.19 | 95.8 | 6.37 | 13.4 | 5.12
4 |  |  | CCc1nc2c(C)cc(C)nc2n1Cc1cnc(-c2cc(-c3cccc(C)c3)ccc2C(=O)O)cn1 [Example 199, 3-(5-((2-ethyl-5,7-dimethyl-3H-imidazo[4,5-b]pyridin-3-yl)methyl)pyrazin-2-yl)-3′-methylbiphenyl-4-carboxylic acid] | 6.56 | 34.2 | 9.3 | 6.15 | 88.5 | 6.65 | 9.6 | 6.24
5 |  |  | CCc1nc2c(C)cc(C)nc2n1Cc1ccc(-c2cc(-c3cccc(C)c3)ccc2C(=O)O)nn1 [Example 200, 3-(6-((2-ethyl-5,7-dimethyl-3H-imidazo[4,5-b]pyridin-3-yl)methyl)pyridazin-3-yl)-3′-methylbiphenyl-4-carboxylic acid] | 6.15 | 25.1 | 11.4 | 5.57 | 54.3 | 5.75 | 4.3 | 5.69
6 |  |  | CCc1nc2c(C)cc(C)nc2n1Cc1cnc(-c2cc(-c3cccc(C)c3)ccc2C(=O)O)nc1 [Example 202, 3-(5-((2-ethyl-5,7-dimethyl-3H-imidazo[4,5-b]pyridin-3-yl)methyl)pyrimidin-2-yl)-3′-methylbiphenyl-4-carboxylic acid] | 5.95 | 19.4 | 5.7 | 5.53 | 52.0 | 5.79 |  | < 4.00
7 |  |  | CCc1nc2c(C)cc(C)nc2n1Cc1ccc(-c2cc(-c3cccc(C)c3)ccc2C(=O)O)nc1 [Example 203, 3-(5-((2-ethyl-5,7-dimethyl-3H-imidazo[4,5-b]pyridin-3-yl)methyl)pyridin-2-yl)-3′-methyl-[1,1′-biphenyl]-4-carboxylic acid] | 6.79 | 32.3 | 34.9 | 5.27 | 79.1 | 6.91 | 5.4 | 6.81
8 |  |  | CCc1nc2c(C)cc(C)nc2n1Cc1ccc(-c2cc(Oc3cccc(Cl)c3)ccc2-c2nnn[nH]2)cc1 [Example 206] | 7.95 | 21.2 | 4.8 | 7.45 | 57.9 | 7.80 |  | 
9 |  |  | CCc1nc2c(C)cc(C)nc2n1Cc1ccc(-c2cc(Oc3cccc(OC(F)(F)F)c3)ccc2-c2nnn[nH]2)cc1 [Example 207] | 7.94 | 23.1 | 2.5 | 7.41 | 74.8 | 7.66 |  | 
10 |  |  | CCc1nc2c(C)cc(C)nc2n1Cc1ccc(-c2cc(Oc3ccccc3)cc(C)c2-c2nnn[nH]2)cc1 [Example 211, 2-Ethyl-5,7-dimethyl-3-((3′-methyl-5′-phenoxy-2′-(1H-tetrazol-5-yl)-[1,1′-biphenyl]-4-yl)methyl)-3H-imidazo[4,5-b]pyridine] | 7.01 | 21.2 | 8.7 | 6.63 | 80.2 | 7.17 |  | 
11 |  |  | CCc1nc2c(C)cc(C)nc2n1Cc1ccc(-c2cc(OCc3ccccc3)ccc2-c2nnn[nH]2)cc1 [Example 212, 3-((5′-(Benzyloxy)-2′-(1H-tetrazol-5-yl)-[1,1′-biphenyl]-4-yl)methyl)-2-ethyl-5,7-dimethyl-3H-imidazo[4,5-b]pyridine] | 8.00 | 11.2 | 3.8 | 7.70 | 29.2 | 7.97 |  | 
12 |  |  | CCc1nc2c(C)cc(C)nc2n1Cc1ccc(-c2cc(Oc3ccccc3)ccc2C(=O)O)cc1 [Example 213, 4′-((2-Ethyl-5,7-dimethyl-3H-imidazo[4,5-b]pyridin-3-yl)methyl)-5-phenoxy-[1,1′-biphenyl]-2-carboxylic acid] | 6.67 | 27.3 | 6.9 | 6.06 | 89.9 | 7.03 |  | 
13 |  |  | CCc1nc2c(C)cc(C)nc2n1Cc1ccc(-c2cc(-n3cc(CCO)nn3)ccc2-c2nnn[nH]2)cc1 [Example 226] | 6.62 | 17.5 | 6.7 | 6.30 | 35.0 | 6.46 |  | < 4.00
14 |  |  | CCc1nc2c(C)cc(C)nc2n1Cc1ccc(-c2cc(-n3cc(C4=CCCC4)nn3)ccc2-c2nnn[nH]2)cc1 [Example 229] | 7.41 | 24.0 | 6.7 | 6.71 | 82.1 | 7.59 |  | < 4.00
15 |  |  | CCc1nc2c(C)cc(C)nc2n1Cc1ccc(-c2cc(-c3cn(Cc4ccccc4)nn3)ccc2-c2nnn[nH]2)cc1 [Example 238] | 6.70 | 22.4 | 9.6 | 5.90 | 62.6 | 6.55 |  | < 4.00
16 |  |  | CCc1nc2c(C)cc(C)nc2n1Cc1ccc(-c2cc(Oc3ccc(C)cn3)ccc2-c2nn[nH]n2)cc1 [Example 248] | 7.58 | 18.2 | 6.8 | 7.09 | 79.5 | 7.85 |  | 
17 |  |  | CCc1nc2c(C)cc(C)nc2n1Cc1ccc(-c2cc(Oc3cc(N)ccn3)ccc2-c2nn[nH]n2)cc1 [Example 249] | 7.62 | 34.2 | 17.6 | 7.15 | 80.3 | 8.10 | 6.6 | 8.02
18 |  |  | CCc1nc2c(C)cc(C)nc2n1Cc1ccc(-c2cc(Oc3nccs3)ccc2-c2nn[nH]n2)cc1 [Example 252] | 7.46 | 15.8 | 8.8 | 6.84 | 41.4 | 7.53 |  | < 4.00
19 |  |  | CCc1nc2c(C)cc(C)nc2n1Cc1ccc(-c2cc(Oc3cncc(OC)c3)ccc2-c2nn[nH]n2)cc1 [Example 261] | 6.86 | 17.3 | 11.5 | 6.11 | 62.3 | 7.40 |  | < 4.00
20 | 5.73 | 5.71 | Cc1nc(C)n(Cc2ccc(-c3cc(-c4ccccc4)ccc3-c3nn[nH]n3)cc2)n1 [Example 456, 5-(4″-((3,5-Dimethyl-1H-1,2,4-triazol-1-yl)methyl)-[1,1′:3′,1″-terphenyl]-4′-yl)-2H-tetrazole] |  |  |  |  |  |  |  | 
21 | 5.94 | 6.00 | Cc1cnn(-c2ccc(-c3nn[nH]n3)c(-c3ccc(Cn4nc(C)nc4C)cc3)c2)c1 [Example 457, 5-(4′-((3,5-Dimethyl-1H-1,2,4-triazol-1-yl)methyl)-5-(4-methyl-1H-pyrazol-1-yl)-[1,1′-biphenyl]-2-yl)-2H-tetrazole] |  |  |  |  |  |  |  | 

From US12037324B2, “Biarylmethyl heterocycles” (Université de Montréal, priority 2016, dated 2024)
